Columns and labels:
[1] = tested on: PC-3; assay: Cytotoxicity against human PC3 cells after 48 hrs by SRB assay; format: functional, cell-based; conditions: PC-3, 48 h
[2] = tested on: PC-3; assay: Cytotoxicity against human PC3 cells at 30 uM after 48 hrs by SRB assay; format: functional; conditions: PC-3, 48 h, read-out: GI
[3] = tested on: DU-145; assay: Cytotoxicity against human DU145 cells after 48 hrs by SRB assay; format: functional, cell-based; conditions: DU-145, 48 h
[4] = tested on: HEp-2; assay: Cytotoxicity against human Hep2 cells after 48 hrs by SRB assay; format: functional, cell-based; conditions: HEp-2, 48 h
[5] = tested on: SF-295; assay: Cytotoxicity against human SF295 cells at 30 uM after 48 hrs by SRB assay; format: functional; conditions: SF-295, 48 h, read-out: GI
[6] = tested on: MCF7; assay: Cytotoxicity against human MCF7 cells at 30 uM after 48 hrs by SRB assay; format: functional; conditions: MCF7, 48 h, read-out: GI
[7] = tested on: HEp-2; assay: Cytotoxicity against human Hep2 cells at 10 uM after 48 hrs by SRB assay; format: functional; conditions: HEp-2, 48 h, read-out: GI
[8] = tested on: MCF7; assay: Cytotoxicity against human MCF7 cells at 50 uM after 48 hrs by SRB assay; format: functional; conditions: MCF7, 48 h, read-out: GI
[9] = tested on: THP-1; assay: Cytotoxicity against human THP1 cells at 30 uM after 48 hrs by SRB assay; format: functional; conditions: THP-1, 48 h, read-out: GI
[10] = tested on: A549; assay: Cytotoxicity against human A549 cells at 10 uM after 48 hrs by SRB assay; format: functional; conditions: A549, 48 h, read-out: GI
[11] = tested on: SF-295; assay: Cytotoxicity against human SF295 cells at 50 uM after 48 hrs by SRB assay; format: functional; conditions: SF-295, 48 h, read-out: GI
[12] = tested on: THP-1; assay: Cytotoxicity against human THP1 cells after 48 hrs by SRB assay; format: functional, cell-based; conditions: THP-1, 48 h
[13] = tested on: A549; assay: Cytotoxicity against human A549 cells at 50 uM after 48 hrs by SRB assay; format: functional; conditions: A549, 48 h, read-out: GI
[14] = tested on: DU-145; assay: Cytotoxicity against human DU145 cells at 10 uM after 48 hrs by SRB assay; format: functional; conditions: DU-145, 48 h, read-out: GI
[15] = tested on: SF-295; assay: Cytotoxicity against human SF295 cells after 48 hrs by SRB assay; format: functional, cell-based; conditions: SF-295, 48 h
[16] = tested on: HEp-2; assay: Cytotoxicity against human Hep2 cells at 50 uM after 48 hrs by SRB assay; format: functional; conditions: HEp-2, 48 h, read-out: GI
[17] = tested on: HCT-15; assay: Cytotoxicity against human HCT15 cells at 30 uM after 48 hrs by SRB assay; format: functional; conditions: HCT-15, 48 h, read-out: GI
[18] = tested on: HL-60; assay: Cytotoxicity against human HL60 cells at 10 uM after 48 hrs by SRB assay; format: functional; conditions: HL-60, 48 h, read-out: GI
[19] = tested on: A549; assay: Cytotoxicity against human A549 cells at 30 uM after 48 hrs by SRB assay; format: functional; conditions: A549, 48 h, read-out: GI
[20] = tested on: PC-3; assay: Cytotoxicity against human PC3 cells at 50 uM after 48 hrs by SRB assay; format: functional; conditions: PC-3, 48 h, read-out: GI
[21] = tested on: HL-60; assay: Cytotoxicity against human HL60 cells after 48 hrs by SRB assay; format: functional, cell-based; conditions: HL-60, 48 h
[22] = tested on: A549; assay: Cytotoxicity against human A549 cells after 48 hrs by SRB assay; format: functional, cell-based; conditions: A549, 48 h
[23] = tested on: DU-145; assay: Cytotoxicity against human DU145 cells at 30 uM after 48 hrs by SRB assay; format: functional; conditions: DU-145, 48 h, read-out: GI
[24] = tested on: PC-3; assay: Cytotoxicity against human PC3 cells at 10 uM after 48 hrs by SRB assay; format: functional; conditions: PC-3, 48 h, read-out: GI
[25] = tested on: HEp-2; assay: Cytotoxicity against human Hep2 cells at 30 uM after 48 hrs by SRB assay; format: functional; conditions: HEp-2, 48 h, read-out: GI
[26] = tested on: DU-145; assay: Cytotoxicity against human DU145 cells at 50 uM after 48 hrs by SRB assay; format: functional; conditions: DU-145, 48 h, read-out: GI
[27] = tested on: SF-295; assay: Cytotoxicity against human SF295 cells at 10 uM after 48 hrs by SRB assay; format: functional; conditions: SF-295, 48 h, read-out: GI
[28] = tested on: HCT-15; assay: Cytotoxicity against human HCT15 cells at 50 uM after 48 hrs by SRB assay; format: functional; conditions: HCT-15, 48 h, read-out: GI
[29] = tested on: HL-60; assay: Cytotoxicity against human HL60 cells at 50 uM after 48 hrs by SRB assay; format: functional; conditions: HL-60, 48 h, read-out: GI
[30] = tested on: MCF7; assay: Cytotoxicity against human MCF7 cells at 10 uM after 48 hrs by SRB assay; format: functional; conditions: MCF7, 48 h, read-out: GI
[31] = tested on: MCF7; assay: Cytotoxicity against human MCF7 cells after 48 hrs by SRB assay; format: functional, cell-based; conditions: MCF7, 48 h
[32] = tested on: THP-1; assay: Cytotoxicity against human THP1 cells at 10 uM after 48 hrs by SRB assay; format: functional; conditions: THP-1, 48 h, read-out: GI
[33] = tested on: HCT-15; assay: Cytotoxicity against human HCT15 cells at 10 uM after 48 hrs by SRB assay; format: functional; conditions: HCT-15, 48 h, read-out: GI
[34] = tested on: THP-1; assay: Cytotoxicity against human THP1 cells at 50 uM after 48 hrs by SRB assay; format: functional; conditions: THP-1, 48 h, read-out: GI
[35] = tested on: HL-60; assay: Cytotoxicity against human HL60 cells at 30 uM after 48 hrs by SRB assay; format: functional; conditions: HL-60, 48 h, read-out: GI
[36] = tested on: HCT-15; assay: Cytotoxicity against human HCT15 cells after 48 hrs by SRB assay; format: functional, cell-based; conditions: HCT-15, 48 h

SMILES	IC50 [1]	inhibition of growth at 30 µM [2]	IC50 [3]	IC50 [4]	inhibition of growth at 30 µM [5]	inhibition of growth at 30 µM [6]	inhibition of growth at 10 µM [7]	inhibition of growth at 50 µM [8]	inhibition of growth at 30 µM [9]	inhibition of growth at 10 µM [10]	inhibition of growth at 50 µM [11]	IC50 [12]	inhibition of growth at 50 µM [13]	inhibition of growth at 10 µM [14]	IC50 [15]	inhibition of growth at 50 µM [16]	inhibition of growth at 30 µM [17]	inhibition of growth at 10 µM [18]	inhibition of growth at 30 µM [19]	inhibition of growth at 50 µM [20]	other results
C=C(C)[C@@H]1CC[C@]2(C(=O)O)CC[C@]3(C)[C@H](CC[C@@H]4[C@@]5(C)CC[C@H](OCc6cn(-c7ccccc7CO)nn6)C(C)(C)[C@@H]5CC[C@]43C)[C@@H]12	49 µM	28%	16 µM	14 µM	72%	72%	45%	80%	65%	54%	77%	15 µM	57%	43%	17 µM	64%	80%	50%	55%	52%	IC50 [21]: 10 µM; IC50 [22]: 14 µM; inhibition of growth at 30 µM [23]: 55%; inhibition of growth at 10 µM [24]: 10%; inhibition of growth at 30 µM [25]: 61%; inhibition of growth at 50 µM [26]: 65%; inhibition of growth at 10 µM [27]: 35%; inhibition of growth at 50 µM [28]: 82%; inhibition of growth at 50 µM [29]: 80%; inhibition of growth at 10 µM [30]: 50%; IC50 [31]: 10 µM; inhibition of growth at 10 µM [32]: 45%; inhibition of growth at 10 µM [33]: 50%; inhibition of growth at 50 µM [34]: 78%; inhibition of growth at 30 µM [35]: 69%; IC50 [36]: 10 µM
C=C(C)[C@@H]1CC[C@]2(C(=O)O)CC[C@]3(C)[C@H](CC[C@@H]4[C@@]5(C)CC[C@H](OCc6cn(-c7ccc(C(=O)c8ccccc8)cc7)nn6)C(C)(C)[C@@H]5CC[C@]43C)[C@@H]12	> 50 µM	4%	50 µM	> 50 µM	19%	25%	25%	44%	24%	32%	12%	44 µM	58%	6%	> 50 µM	25%	41%	6%	37%	3%	IC50 [21]: 40 µM; IC50 [22]: 36 µM; inhibition of growth at 30 µM [23]: 9%; inhibition of growth at 10 µM [24]: 6%; inhibition of growth at 30 µM [25]: 26%; inhibition of growth at 50 µM [26]: 50%; inhibition of growth at 10 µM [27]: 8%; inhibition of growth at 50 µM [28]: 46%; inhibition of growth at 50 µM [29]: 94%; inhibition of growth at 10 µM [30]: 29%; IC50 [31]: > 50 µM; inhibition of growth at 10 µM [32]: 3%; inhibition of growth at 10 µM [33]: 43%; inhibition of growth at 50 µM [34]: 91%; inhibition of growth at 30 µM [35]: 30%; IC50 [36]: > 50 µM
C=C(C)[C@@H]1CC[C@]2(C(=O)O)CC[C@]3(C)[C@H](CC[C@@H]4[C@@]5(C)CC[C@H](OCc6cn(-c7ccc8c(c7)OCO8)nn6)C(C)(C)[C@@H]5CC[C@]43C)[C@@H]12	43 µM	32%	30 µM	26 µM	55%	68%	9%	82%	46%	22%	65%	34 µM	40%	10%	18 µM	67%	36%	41%	40%	61%	IC50 [21]: 30 µM; IC50 [22]: > 50 µM; inhibition of growth at 30 µM [23]: 50%; inhibition of growth at 10 µM [24]: 2%; inhibition of growth at 30 µM [25]: 56%; inhibition of growth at 50 µM [26]: 91%; inhibition of growth at 10 µM [27]: 36%; inhibition of growth at 50 µM [28]: 50%; inhibition of growth at 50 µM [29]: 61%; inhibition of growth at 10 µM [30]: 47%; IC50 [31]: 13 µM; inhibition of growth at 10 µM [32]: 33%; inhibition of growth at 10 µM [33]: 22%; inhibition of growth at 50 µM [34]: 52%; inhibition of growth at 30 µM [35]: 50%; IC50 [36]: 50 µM
C=C(C)[C@@H]1CC[C@]2(C(=O)O)CC[C@]3(C)[C@H](CC[C@@H]4[C@@]5(C)CC[C@H](OCc6cn(-c7ccc([N+](=O)[O-])cc7)nn6)C(C)(C)[C@@H]5CC[C@]43C)[C@@H]12	13 µM	59%	24 µM	15 µM	72%	44%	43%	53%	68%	28%	87%	9 µM	62%	43%	8 µM	72%	52%	63%	49%	74%	IC50 [21]: 4.5 µM; IC50 [22]: 15 µM; inhibition of growth at 30 µM [23]: 54%; inhibition of growth at 10 µM [24]: 48%; inhibition of growth at 30 µM [25]: 54%; inhibition of growth at 50 µM [26]: 72%; inhibition of growth at 10 µM [27]: 52%; inhibition of growth at 50 µM [28]: 65%; inhibition of growth at 50 µM [29]: 94%; inhibition of growth at 10 µM [30]: 20%; IC50 [31]: 38 µM; inhibition of growth at 10 µM [32]: 51%; inhibition of growth at 10 µM [33]: 36%; inhibition of growth at 50 µM [34]: 93%; inhibition of growth at 30 µM [35]: 78%; IC50 [36]: 28 µM
C=C(C)[C@@H]1CC[C@]2(C(=O)O)CC[C@]3(C)[C@H](CC[C@@H]4[C@@]5(C)CC[C@H](OCc6cn(-c7ccc(C#N)cc7)nn6)C(C)(C)[C@@H]5CC[C@]43C)[C@@H]12	> 50 µM	5%	> 50 µM	32 µM	18%	32%	1%	51%	44%	22%	54%	> 50 µM	36%	1%	48 µM	60%	80%	15%	28%	42%	IC50 [21]: 32 µM; IC50 [22]: > 50 µM; inhibition of growth at 30 µM [23]: 15%; inhibition of growth at 10 µM [24]: 3%; inhibition of growth at 30 µM [25]: 49%; inhibition of growth at 50 µM [26]: 20%; inhibition of growth at 10 µM [27]: 5%; inhibition of growth at 50 µM [28]: 39%; inhibition of growth at 50 µM [29]: 48%; inhibition of growth at 10 µM [30]: 5%; IC50 [31]: 49 µM; inhibition of growth at 10 µM [32]: 21%; inhibition of growth at 10 µM [33]: 14%; inhibition of growth at 50 µM [34]: 47%; inhibition of growth at 30 µM [35]: 40%; IC50 [36]: > 50 µM
